Measurements published in US20190374533A1, “COMPOUNDS AND METHODS FOR INHIBITING NHE-MEDIATED ANTIPORT IN THE TREATMENT OF DISORDERS ASSOCIATED WITH FLUID RETENTION OR SALT OVERLOAD AND GASTROINTESTINAL TRACT DISORDERS” (Ardelyx, Inc., priority 2008, published 2019).

Each compound was assayed against T1, rat NHE-3 (Rattus norvegicus, UniProt P26433) (assay: Cell-based assay of NHE-3 activity (Pharmacological Test Example 1)). Conditions: OK cells expressing rat NHE-3; 0-30 uM test compound, 5 uM EIPA.
T1 construct: expressed in transfected cells; host or cells: Opossum kidney (OK) cells (ATCC), electroporated
Method: Rat NHE-3-mediated Na^+-dependent H^+ antiport was measured using a modification of the pH sensitive dye method originally reported by Tsien (Proc. Natl. Acad. Sci. USA. (1984) 81(23): 7436-7440). Opossum kidney (OK) cells were obtained from the ATCC and propagated per their instructions. The rat NHE-3 gene was introduced into OK cells via electroporation, seeded into 96 well plates and grown overnight. Medium was aspirated from the wells, cells were washed twice with NaCl-HEPES buffer (100 mM NaCl, 50 mM HEPES, 10 mM glucose, 5 mM KCl, 2 mM CaCl2, 1 mM MgCl2, pH 7.4), then incubated for 30 min at room temperature with NH4Cl-HEPES buffer (20 mM NH4Cl, 80 mM NaCl, 50 mM HEPES, 5 mM KCl, 2 mM CaCl2), 1 mM MgCl2, pH 7.4) containing 5 uM BCECF-AM (Invitrogen). Cells were washed twice with Ammonium free, Nat-free HEPES (100 mM choline, 50 mM HEPES, 10 mM glucose, 5 mM KCl, 2 mM CaCl2), 1 mM MgCl2, pH 7.4) and incubated in the same buffer for 10 minutes at room temperature to lower intracellular pH. […] Initial rates were plotted as the average 3-6 replicates, and pIC50 values were estimated using GraphPad Prism.

T1 sequence (P26433 29-831): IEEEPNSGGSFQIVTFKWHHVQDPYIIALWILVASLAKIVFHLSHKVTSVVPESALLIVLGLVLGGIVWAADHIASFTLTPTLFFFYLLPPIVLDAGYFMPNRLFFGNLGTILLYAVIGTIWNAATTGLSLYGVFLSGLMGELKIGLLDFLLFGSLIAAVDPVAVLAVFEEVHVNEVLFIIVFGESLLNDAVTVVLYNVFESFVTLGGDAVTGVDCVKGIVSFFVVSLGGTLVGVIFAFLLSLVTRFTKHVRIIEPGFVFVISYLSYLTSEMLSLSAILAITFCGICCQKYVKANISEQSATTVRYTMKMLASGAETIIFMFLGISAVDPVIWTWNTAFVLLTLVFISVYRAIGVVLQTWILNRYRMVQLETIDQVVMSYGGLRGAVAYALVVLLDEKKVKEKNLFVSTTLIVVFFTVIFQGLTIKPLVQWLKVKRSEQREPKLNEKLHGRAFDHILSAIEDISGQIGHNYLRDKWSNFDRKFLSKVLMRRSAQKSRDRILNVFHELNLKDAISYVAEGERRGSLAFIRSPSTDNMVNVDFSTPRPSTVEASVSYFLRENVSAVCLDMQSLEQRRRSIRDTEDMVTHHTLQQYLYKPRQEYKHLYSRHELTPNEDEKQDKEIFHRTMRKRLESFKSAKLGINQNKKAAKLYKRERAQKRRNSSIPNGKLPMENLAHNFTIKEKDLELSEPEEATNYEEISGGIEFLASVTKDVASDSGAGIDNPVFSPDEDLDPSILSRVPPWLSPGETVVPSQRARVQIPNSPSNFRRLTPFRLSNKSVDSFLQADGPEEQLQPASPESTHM

Row | Compound | rat NHE-3 Average pIC50
1 | NC(N)=NCCCN1CCN(c2cccc(-c3nc(N=C(N)N)nc4ccc(Cl)cc34)c2)CC1 [Example 67, 2-(4-(3-(4-(3-guanidinopropyl)piperazin-1-yl)phenyl)-6-chloroquinazolin-2-yl)guanidine] | 6 to 7
2 | CN1Cc2c(Cl)cc(Cl)cc2C(c2cccc(S(=O)(=O)NCCOCCOCCOCCN)c2)C1 (stereo not drawn) [Example 28, N-(2-(2-(2-(2-aminoethoxy)ethoxy)ethoxy)ethyl)-3-(6,8-dichloro-2-methyl-1,2,3,4-tetrahydroisoquinolin-4-yl)benzenesulfonamide] | 6 to 7
3 | CN1Cc2c(Cl)cc(Cl)cc2C(c2ccc(S(=O)(=O)NCCOCCOCCNC(=O)C(=O)NCCOCCOCCNS(=O)(=O)c3ccc(C4CN(C)Cc5c(Cl)cc(Cl)cc54)cc3)cc2)C1 (stereo not drawn) [Example 175, N1,N2-bis(2-(2-(2-(4-(6,8-dichloro-2-methyl-1,2,3,4-tetrahydroisoquinolin-4-yl)phenylsulfonamido)ethoxy)ethoxy)ethyl)oxalamide] | <5.0
4 | N=C(N)Nc1nc(-c2cccc(N3CCN(CCC(=O)O)CC3)c2)c2cc(Cl)ccc2n1 [Example 64, 3-(4-(3-(6-chloro-2-(diaminomethyleneamino)quinazolin-4-yl)phenyl)piperazin-1-yl)propanoic acid] | 5 to 6
5 | CN1Cc2c(Cl)cc(Cl)cc2C(c2ccc(S(=O)(=O)NCCOCCOCCNC(=O)[C@H](O)[C@@H](O)C(=O)NCCOCCOCCNS(=O)(=O)c3ccc(C4CN(C)Cc5c(Cl)cc(Cl)cc54)cc3)cc2)C1 (stereo partly drawn) [Example 207, (2R,3R)—N1,N4-bis(2-(2-(2-(4-(6,8-dichloro-2-methyl-1,2,3,4-tetrahydroisoquinolin-4-yl)phenylsulfonamido)ethoxy)ethoxy)ethyl)-2,3-dihydroxysuccinamide] | 6 to 7
6 | CN1Cc2c(Cl)cc(Cl)cc2C(c2cccc(S(=O)(=O)NCCOCCOCCOCCNC(=O)CCOCCOCCOCCOCCOCCOCCOCCOCCOCCC(=O)NCCOCCOCCOCCNS(=O)(=O)c3cccc(C4CN(C)Cc5c(Cl)cc(Cl)cc54)c3)c2)C1 (stereo not drawn) [Example 97, N1,N31-bis(2-(2-(2-(2-(3-(6,8-dichloro-2-methyl-1,2,3,4-tetrahydroisoquinolin-4-yl)phenylsulfonamido)ethoxy)ethoxy)ethoxy)ethyl)-4,7,10,13,16,19,22,25,28-nonaoxahentriacontane-1,31-diamide] | 6 to 7
7 | CN1Cc2c(Cl)cc(Cl)cc2C(c2cccc(S(=O)(=O)NCCOCCOCCNCc3ccc(CNCCOCCOCCNS(=O)(=O)c4cccc(C5CN(C)Cc6c(Cl)cc(Cl)cc65)c4)cc3)c2)C1 (stereo not drawn) [Example 206, N,N′-(2,2′-(2,2′-(2,2′-(1,4-phenylenebis(methylene))bis(azanediyl)bis(ethane-2,1-diyl))bis(oxy)bis(ethane-2,1-diyl))bis(oxy)bis(ethane-2,1-diyl))bis(3-(6,8-dichloro-2-methyl-1,2,3,4-tetrahydroisoquinolin-4-yl)benzenesulfonamide)] | >7
8 | Nc1cccc(C2CN(CCOCCOCCOCCN3Cc4c(Cl)cc(Cl)cc4C(c4cccc(N)c4)C3)Cc3c(Cl)cc(Cl)cc32)c1 (stereo not drawn) [Example 171, 3,3′-(2,2′-(2,2′-(2,2′-oxybis(ethane-2,1-diyl)bis(oxy))bis(ethane-2,1-diyl))bis(6,8-dichloro-1,2,3,4-tetrahydroisoquinoline-4,2-diyl))dianiline] | <5.0
9 | N=C(N)Nc1nc(-c2cccc(N3CCN(CCCN)CC3)c2)c2cc(Cl)ccc2n1 [Example 65, 1-(4-(3-(4-(3-aminopropyl)piperazin-1-yl)phenyl)-6-chloroquinazolin-2-yl)guanidine] | 6 to 7
10 | CN1Cc2c(Cl)cc(Cl)cc2C(c2cccc(S(=O)(=O)NCCOCCOCCOCCNC(=O)NCCOCCOCCOCCNS(=O)(=O)c3cccc(C4CN(C)Cc5c(Cl)cc(Cl)cc54)c3)c2)C1 (stereo not drawn) [Example 100, N,N′-(13-oxo-3,6,9,17,20,23-hexaoxa-12,14-diazapentacosane-1,25-diyl)bis(3-(6,8-dichloro-2-methyl-1,2,3,4-tetrahydroisoquinolin-4-yl)benzenesulfonamide)] | 6 to 7
11 | CN1Cc2c(Cl)cc(Cl)cc2C(c2cccc(S(=O)(=O)NCCOCCOCCNC(=O)COCC(=O)NCCOCCOCCNS(=O)(=O)c3cccc(C4CN(C)Cc5c(Cl)cc(Cl)cc54)c3)c2)C1 (stereo not drawn) [Example 195, 2,2′-oxybis(N-(2-(2-(2-(3-(6,8-dichloro-2-methyl-1,2,3,4-tetrahydroisoquinolin-4-yl)phenylsulfonamido)ethoxy)ethoxy)ethyl)acetamide)] | >7
12 | CN1Cc2c(Cl)cc(Cl)cc2C(c2cccc(S(=O)(=O)NCCOCCOCCNC(=O)C(C)(C)C(=O)NCCOCCOCCNS(=O)(=O)c3cccc(C4CN(C)Cc5c(Cl)cc(Cl)cc54)c3)c2)C1 (stereo not drawn) [Example 196, N1,N3-bis(2-(2-(2-(3-(6,8-dichloro-2-methyl-1,2,3,4-tetrahydroisoquinolin-4-yl)phenylsulfonamido)ethoxy)ethoxy)ethyl)-2,2-dimethylmalonamide] | 5 to 6

Same assay, conditions: OK cells expressing rat NHE-3; 0-30 uM test compound, 5 uM EIPA; read-out: rat NHE-3 Average pIC50 (converted)

Row | Compound | IC50 [nM]
13 | CN1Cc2c(Cl)cc(Cl)cc2C(c2cccc(S(=O)(=O)NCCOCCOCCOCCn3cc(COCc4cn(CCOCCOCCOCCNS(=O)(=O)c5cccc(C6CN(C)Cc7c(Cl)cc(Cl)cc76)c5)nn4)nn3)c2)C1 (stereo not drawn) [Example 81, N,N′-(2,2′-(2,2-(2,2′-(2,2′-(4,4′-oxybis(methylene)bis(1H-1,2,3-triazole-4,1-diyl))bis(ethane-2,1-diyl))bis(oxy)bis(ethane-2,1-diyl))bis(oxy)bis(ethane-2,1-diyl))bis(oxy)bis(ethane-2,1-diyl))bis(3-(6,8-dichloro-2-methyl-1,2,3,4-tetrahydroisoquinolin-4-yl)benzenesulfonamide)] | < 100
14 | CN1Cc2c(Cl)cc(Cl)cc2[C@H](c2ccc(S(=O)(=O)NCCOCCOCCOCCNC(=O)NCCCCNC(=O)NCCOCCOCCOCCNS(=O)(=O)c3ccc([C@@H]4CN(C)Cc5c(Cl)cc(Cl)cc54)cc3)cc2)C1 (single isomer, unassigned) [Example 251, (S or R)—N,N′-(13,20-dioxo-3,6,9,24,27,30-hexaoxa-12,14,19,21-tetraazadotriacontane-1,32-diyl)bis(4-((S or R)-6,8-dichloro-2-methyl-1,2,3,4-tetrahydroisoquinolin-4-yl)benzenesulfonamide)] | < 100
15 | C/C(=C\c1cc(F)c(Oc2ccc(S(=O)(=O)NCCOCCOCCOCCNC(=O)NCCOCCOCCOCCNS(=O)(=O)c3ccc(Oc4c(F)cc(/C=C(\C)C(=O)N=C(N)N)cc4F)cc3)cc2)c(F)c1)C(=O)N=C(N)N [Example 46, N,N′-(13-oxo-3,6,9,17,20,23-hexaoxa-12,14-diazapentacosane-1,25-diyl)bis[(E)-N-(diaminomethylene)-3-(3,5-difluoro-4-(4-sulfamoylphenoxy)phenyl)-2-methylacrylamide]] | 100 to 1000
16 | CN1Cc2c(Cl)cc(Cl)cc2C(c2cccc(S(=O)(=O)NCCOCCOCCOCCNS(=O)(=O)c3cccc(S(=O)(=O)NCCOCCOCCOCCNS(=O)(=O)c4cccc(C5CN(C)Cc6c(Cl)cc(Cl)cc65)c4)c3)c2)C1 (stereo not drawn) [Example 219, N1,N3-bis(2-(2-(2-(2-(3-(6,8-dichloro-2-methyl-1,2,3,4-tetrahydroisoquinolin-4-yl)phenylsulfonamido)ethoxy)ethoxy)ethoxy)ethyl)benzene-1,3-disulfonamide] | 1000 to 10000
17 | C/C(=C\c1cc(F)c(Oc2ccc(S(=O)(=O)NCCOCCOCCOCCNC(=O)CCOCCOCCOCCOCCOCCOCCOCCOCCOCCC(=O)NCCOCCOCCOCCNS(=O)(=O)c3ccc(Oc4c(F)cc(/C=C(\C)C(=O)N=C(N)N)cc4F)cc3)cc2)c(F)c1)C(=O)N=C(N)N [Example 102, N1,N31-bis(2-(2-(2-(2-(4-(4-((E)-3 (diaminomethyleneamino)-2-methyl-3-oxoprop-1-enyl)-2,6-difluorophenoxy)phenylsulfonamido)ethoxy)ethoxy)ethoxy)ethyl)-4,7,10,13,16,19,22,25,28-nonaoxahentriacontane-1,31-diamide] | 100 to 1000
18 | CN1Cc2c(Cl)cc(Cl)cc2C(c2cccc(S(=O)(=O)NCCOCCOCCOCCNC(=O)Nc3ccc(NC(=O)NCCOCCOCCOCCNS(=O)(=O)c4cccc(C5CN(C)Cc6c(Cl)cc(Cl)cc65)c4)cc3)c2)C1 (stereo not drawn) [Example 209, N,N′-(1,1′-(1,4-phenylenebis(azanediyl))bis(1-oxo-5,8,11-trioxa-2-azatridecane-13,1-diyl))bis(3-(6,8-dichloro-2-methyl-1,2,3,4-tetrahydroisoquinolin-4-yl)benzenesulfonamide)] | 1000 to 10000
